Assays:
[1] = tested on: mouse C2C12 skeletal muscle cells; details: cited from earlier work
[2] = tested on: rat insulinoma cells (INS1); details: cited from earlier work
[3] = tested on: male lean C57BL6 mice; test: Insulin levels post glucose dosing by ELISA (Example 1); type: in vivo; details: 5 μg/mouse, oral glucose 3 g/kg
Protocol: (§1) In this experiment, male lean C57BL6 mice were used. […] The mice were randomized to achieve similar body weight and glucose for each group before dosing. All animals were subjected to fasting at the start of the dark period (Group 1-4). Food was removed, and bedding materials were replaced with fresh bedding to eliminate any residual food. Animals remained under fast until the 120 minute time point was taken. Water was made available ad libitum throughout the study. A 30 mg/mL stock solution of melatonin (30 mg melatonin in 1 ml of pure sesame oil) was made. From this stock solution, 10 μL of stock was taken and diluted with 990 μL of sesame oil, resulting in a solution concentration of 300 μg/ml. This was then diluted 1:18, resulting in a final concentration of 16.6-16.7 μg/mL. Mice received 0.3 ml by subcutaneous injection (5 μg/mouse). […] Insulin and blood glucose levels were measured by standard methods. The oral glucose tolerance test was carried out as follows using a glucose oxidase reaction measured by a Precision glucometer. […] Blood glucose level of all animals in Group 1-4 were measured at time 0 (right before the glucose dosing), 5, 10, 20, 30, 60 and 120 minutes post glucose dosing (7 time points). Insulin levels were also measured at 0, 30, 60, and 120 minutes from separate collections of tail vein blood obtained post glucose dosing by Crystal Chemistry ELISA.

[4] = tested on: male lean C57BL6 mice; test: Oral glucose tolerance test, blood glucose levels (Example 1); type: in vivo; details: 5 μg/mouse, oral glucose 3 g/kg
Protocol: as §1

[5] = tested on: rat model of diabetes; details: cited from earlier work
[6] = tested on: male C57BL6 DIO mice; test: Oral glucose tolerance test, blood glucose levels (Example 2); type: in vivo
Protocol: In this experiment, male C57BL6 DIO mice (10-11 weeks old, n=52) were used and maintained on a high fat diet. A total of 49 animals were used in this study. […] The mice were randomized to achieve similar body weight and glucose for each group before dosing. All animals were subjected to fasting at the start of the dark period (Groups 1-7). Food was removed, and bedding materials were replaced with fresh bedding to eliminate any residual food. Animals remained under fast until the 120 minute time point was taken. Water was made available ad libitum throughout the study. A 30 mg/mL stock solution of melatonin (30 mg melatonin in 1 ml of pure sesame oil) was made. From this stock solution, 10 μL of stock was taken and diluted with 990 μL of sesame oil, resulting in a solution concentration of 300 μg/ml. This was then diluted 1:18, resulting in a final concentration of 16.6-16.7 μg/mL. The doses of melatonin were adjusted based on the weight of the mouse. […] Blood glucose levels were measured by standard methods. […] Blood glucose level of all animals in Groups 1-7 were measured at time 0 (right before the glucose dosing), 15, 30, 60 and 120 minutes post glucose dosing (5 time points). Body weight was recorded twice per week prior to the study, and before the blood glucose level measurements. […]

[7] = cells exposed to melatonin and GLP-1 at the same time
[8] = overnight pretreatment with melatonin

Row | SMILES | glucose transport [1] | GLP-1 induced gene expression [2, 7] | GLP-1 induced insulin secretion [2, 7] | cAMP-response element-mediated gene expression in response to GLP-1 or forskolin [2, 8] | insulin secretion in response to GLP-1 or forskolin [2, 8] | insulin-promoter-driven luciferase gene expression in response to GLP-1 or forskolin [2, 8] | insulin levels ([3]; 1-hour melatonin dose, SC -1 h, FIG. 1D) | insulin levels compared to vehicle alone ([3]; 12-hour melatonin dose, SC -12 h, FIG. 1B) | glucose levels compared to vehicle alone ([4]; 1-hour melatonin dose, SC -1 h, FIG. 1C) | blood glucose levels compared to vehicle alone ([4]; 12-hour sustained melatonin dose, SC -12 h, FIG. 1A) | blood glucose levels [5] | protection against hyperglycemia-induced oxidative damage [5] | effect on the anti-diabetic action of sitagliptin ([6]; 12-hour melatonin dose SC with sitagliptin 10 mg/kg PO) | blood glucose levels ([6]; sitagliptin 10 mg/kg alone, PO -1 h, FIG. 2B)
1 | COc1ccc2[nH]cc(CCNC(C)=O)c2c1 [melatonin, N-acetyl-5-methoxyindole-3-ethaneamine] | stimulates | antagonized | antagonized | marked increase | marked increase | marked increase | lower | much higher | not appreciably different | significantly decreased | without affecting | limited protection | does not inhibit | 
2 | N[C@@H](CC(=O)N1CCn2c(nnc2C(F)(F)F)C1)Cc1cc(F)c(F)cc1F [Sitagliptin] |  |  |  |  |  |  |  |  |  |  |  |  |  | decrease
